This is an account of results in patent US12195410B2, “Nitrapyrin compositions for enhancing nitrogen nutrient use efficiency and improving plant growth” (Verdesian Life Sciences U.S., LLC, priority 2018, dated 2025).

A short description of series [1]: Formation of solutions of nitrapyrin salts at 20% w/w nitrapyrin and grading of solutions. The series is classed as physicochemical. Further details: key: 5: Fully dissolved; 4: Mostly dissolved; 3: Mostly not dissolved; 2: Not dissolved; 1: Additional precipitate. The source says:
Example 2. Formation of Solutions of Nitrapyrin Salts and Grading of Solutions

A short description of series [2]: Nitrapyrin volatilization, weight loss on heated balance at 100° C. The settings on record: for weight as a percent of original weight: heated balance 100° C. The series is classed as physicochemical. On the procedure:
Three materials were placed on a heated balance at 100° C. and had their weights observed every minute for 10 minutes, as a percent of original weight. The materials were: • 1. pure nitrapyrin, • 2. 25% w/w solution of nitrapyrin in sulfolane, and • 3. solution of 25% nitrapyrin salt with equimolar (on acid basis) amount of maleic-itaconic copolymer, also in sulfolane (nitrapyrin/polyanionic polymer salt).
Therefore, the disclosed nitrapyrin salts substantially reduce the volatilization of nitrapyrin.

The mark [3] stands for this setting: solvent Rhodiasolv Polarclean (L).
[4] abbreviates: solvent propylene carbonate (F).
Setting [5] is: solvent tripropylene glycol (E).

As for `Clc1cccc(C(Cl)(Cl)Cl)n1.Clc1cccc(C(Cl)(Cl)Cl)n1.O=C(O)c1cccc(C(=O)O)c1` [isophthalic], the grading of solution is reported as 3 in series [1] (solvent Agnique AMD3L (I)); 3 in series [1] (solvent Agnique AMD810 (H)); 1 in series [1] (solvent PT250 (C)); 2 in series [1] (solvent PT700 (B)); 3 in series [1] (solvent Rhodiasolv ADMA10 (J)); 3 in series [1] (solvent Rhodiasolv ADMA810 (K)). For the same compound, the grading of solution in series [1] (setting [3]) is given as 3; in series [1] (solvent dipropylene glycol (A)), 2; in series [1] (setting [4]), 3; in series [1] (solvent triacetin (G)) it was 3; in series [1] (solvent triethylene glycol (D)), 1; in series [1] (setting [5]), 4.
Regarding `O=C(O)CCC(=O)O` [succinic], the grading of solution amounted to 5 in series [1] (solvent Agnique AMD3L (I)); 5 in series [1] (solvent Agnique AMD810 (H)); 1 in series [1] (solvent PT250 (C)); 4 in series [1] (solvent PT700 (B)); 5 in series [1] (solvent Rhodiasolv ADMA10 (J)); 5 in series [1] (solvent Rhodiasolv ADMA810 (K)). Moreover, the grading of solution is listed as 5 in series [1] (setting [3]); 3 in series [1] (solvent dipropylene glycol (A)); 3 in series [1] (setting [4]); 2 in series [1] (solvent triacetin (G)); 2 in series [1] (solvent triethylene glycol (D)); 3 in series [1] (setting [5]).
As for `O=C(O)C(O)C(O)C(=O)O` (centres unmarked) [tartaric], the grading of solution in series [1] (solvent Agnique AMD3L (I)) is recorded as 5; in series [1] (solvent Agnique AMD810 (H)), 5; in series [1] (solvent PT250 (C)) it was 1; in series [1] (solvent PT700 (B)), 2; in series [1] (solvent Rhodiasolv ADMA10 (J)), 5; in series [1] (solvent Rhodiasolv ADMA810 (K)), 5. Also, the grading of solution is 5 in series [1] (setting [3]); 2 in series [1] (solvent dipropylene glycol (A)); 2 in series [1] (setting [4]); 2 in series [1] (solvent triacetin (G)); 1 in series [1] (solvent triethylene glycol (D)); 2 in series [1] (setting [5]).
Regarding `Clc1cccc(C(Cl)(Cl)Cl)n1` [nitrapyrin without solvent, Nitrapyrin], the “weight as a percent of original weight” value turned out to be 100.00% in series [2] (experiment time 0 min); 99.20% in series [2] (experiment time 1 min); 98.56% in series [2] (experiment time 2 min); 97.92% in series [2] (experiment time 3 min); 96.00% in series [2] (experiment time 4 min); 94.87% in series [2] (experiment time 5 min). Further, the “weight as a percent of original weight” value in series [2] (experiment time 6 min) turned out to be 93.75%; in series [2] (experiment time 7 min), 92.63%; in series [2] (experiment time 8 min), 90.87%; in series [2] (experiment time 9 min) it was 89.90%; in series [2] (experiment time 10 min), 89.10%. For the same compound, in series [2] (nitrapyrin without solvent vs. solvent alone, 100° C., 3 to 10 min), the “nitrapyrin sulfolane volatility ratio, Delta 3-10” value stood at 401%. The “nitrapyrin sulfolane volatility ratio, Delta 4-10” value in series [2] (nitrapyrin without solvent vs. solvent alone, 100° C., 4 to 10 min) is 392%. Besides, the “nitrapyrin sulfolane volatility ratio, Delta 5-10” value in series [2] (nitrapyrin without solvent vs. solvent alone, 100° C., 5 to 10 min) was 393%.
For `Clc1cccc(C(Cl)(Cl)Cl)n1.Clc1cccc(C(Cl)(Cl)Cl)n1.O=C(O)CC(O)C(=O)O` [malic], the grading of solution in series [1] (solvent Agnique AMD3L (I)) is reported as 5; in series [1] (solvent Agnique AMD810 (H)), 5; in series [1] (solvent PT250 (C)), 1; in series [1] (solvent PT700 (B)), 4; in series [1] (solvent Rhodiasolv ADMA10 (J)), 5; in series [1] (solvent Rhodiasolv ADMA810 (K)), 5. In addition, the grading of solution was found to be 5 in series [1] (setting [3]); 2 in series [1] (solvent dipropylene glycol (A)); 3 in series [1] (setting [4]); 3 in series [1] (solvent triacetin (G)); 2 in series [1] (solvent triethylene glycol (D)); 2 in series [1] (setting [5]).
Consider `CC(O)(P(=O)(O)O)P(=O)(O)O.Clc1cccc(C(Cl)(Cl)Cl)n1.Clc1cccc(C(Cl)(Cl)Cl)n1.Clc1cccc(C(Cl)(Cl)Cl)n1.Clc1cccc(C(Cl)(Cl)Cl)n1` [etidronic], for which the grading of solution in series [1] (solvent Agnique AMD3L (I)) is recorded as 5; in series [1] (solvent Agnique AMD810 (H)) it was 4; in series [1] (solvent PT250 (C)) it was 1; in series [1] (solvent PT700 (B)) it was 4; in series [1] (solvent Rhodiasolv ADMA10 (J)), 5; in series [1] (solvent Rhodiasolv ADMA810 (K)), 4. Further, the grading of solution was 5 in series [1] (setting [3]); 1 in series [1] (solvent dipropylene glycol (A)); 2 in series [1] (setting [4]); 2 in series [1] (solvent triacetin (G)); 1 in series [1] (solvent triethylene glycol (D)); 1 in series [1] (setting [5]).
